According to article PMC7752915 (Cell Discovery, 2020):
Counter-ions that a name gives are not always drawn. Like-named read-outs stand apart in the source and are kept apart here.

How the values were obtained:
SARS-CoV-2 [1] = test: separate or combined application of CQ and CCB in Vero E6 cells, qRT-PCR and NP immunofluorescence; format: cell-based; settings: MOI 0.05, 24 h p.i.
SARS-CoV-2 [2] = test: in vitro
in vitro = settings: African green monkey
SARS-CoV-2 [3] = test: microbe, parasite or virus in culture; settings: Severe acute respiratory syndrome coronavirus 2, Vero C1008, 24 h, read-out: half maximal inhibitory concentration (IC50) of SARS-CoV-2 replication
[4] = cited from earlier work
[5] = tested on: COVID-19 patients with hypertension; test: retrospective clinical investigation of hospitalized COVID-19 patients with hypertension as the only comorbidity; format: in vivo, human; settings: for Admission to ICU / Invasive ventilation: number (%) of patients
SARS-CoV-2 [6] = settings: for IC50: read-out: half maximal inhibitory concentration (IC50) of SARS-CoV-2 replication, viral RNA copy number in supernatant
Vero E6 cells = test: cytotoxicity in Vero E6 cells, CCK-8 assay; settings: read-out: half cytotoxic concentration (CC50); Vero E6 cells, CCK-8 assay, 24 h
SARS-CoV-2 [7] = format: cell-based; settings: Vero E6 cells, MOI 0.05, 24 h p.i., viral titer in supernatant
[8] = cytotoxicity in Vero E6 cells, CCK-8 assay; settings: African green monkey
SARS-CoV-2 [9] = test: time-of-addition assay (full-time, entry, post-entry treatment) in Vero E6 cells; format: cell-based
[10] = Supplementary Table S2, by treatment regimen
[11] = Vero E6 cells, MOI 0.05, 24 h p.i., serial concentrations
[12] = Vero E6 cells, MOI 0.05, 24 h p.i.
[13] = Amlodipine n = 19, listed as Amlodipine

CCN(CC)CCCC(C)Nc1ccnc2cc(Cl)ccc12 (stereo not shown) [CQ, chloroquine]
effect on virus replication, separate or combined application (SARS-CoV-2 [1]): distinct reduction in virus replication

COCCOC(=O)C1=C(C)NC(C)=C(C(=O)OC/C=C/c2ccccc2)C1c1cccc([N+](=O)[O-])c1 (stereo not shown) [cilnidipine]
selectivity ratio at 24 h (SARS-CoV-2 [2]): > 8.64 | CC50 at 24 h (in vitro): > 100 µM | IC50 (SARS-CoV-2 [3]): 11.6 µM | Cmax ([4]; human, in vivo, 20 mg): 16.5 ng/mL

COC(=O)C1=C(C)NC(C)=C(C(=O)OC)C1c1ccccc1[N+](=O)[O-] [nifedipine]
case fatality rate (CFR) ([5]; COVID-19 patients with hypertension as only comorbidity, by antihypertensive drug received): 14.3% | Fatal, n (%) [5, 10]: 2 (14.3) n (%)

CC(=O)OCOC(=O)CN(CC(=O)OCOC(C)=O)c1ccccc1OCCOc1ccccc1N(CC(=O)OCOC(C)=O)CC(=O)OCOC(C)=O [BAPTA-AM, 1,2-bis(2-aminophenoxy)ethane-N,N,N′,N′-tetraacetic acid tetrakis(acetoxymethyl ester)]
selective index (SI = CC50/IC50) (SARS-CoV-2 [6]; Vero E6 cells): 5.83 | inhibition of SARS-CoV-2 replication (in words) (SARS-CoV-2 [6]; [11]): significantly inhibited virus replication in a concentration-dependent manner | IC50 (SARS-CoV-2 [6]; [12]): 13.9 µM | CC50 (Vero E6 cells): 81.3 µM

CCCCC(=O)N(Cc1ccc(-c2ccccc2-c2nnn[nH]2)cc1)[C@H](C(=O)O)C(C)C [valsartan]
inhibition of SARS-CoV-2 replication (in words) (SARS-CoV-2 [6]; [11]): did not show any significant inhibition effects

CCOC(=O)[C@H](CCc1ccccc1)N[C@@H](C)C(=O)N1CCC[C@H]1C(=O)O [enalapril maleate]
inhibition of SARS-CoV-2 replication (in words) (SARS-CoV-2 [6]; [11]): did not show any significant inhibition effects

C[C@H](N[C@@H](CCc1ccccc1)C(=O)O)C(=O)N1CCC[C@H]1C(=O)O.O.O [enalaprilat dehydrate]
inhibition of SARS-CoV-2 replication (in words) (SARS-CoV-2 [6]; [11]): did not show any significant inhibition effects

CCOC(=O)C1=C(COCCN)NC(C)=C(C(=O)OC)C1c1ccccc1Cl (stereo not shown) [amlodipine besylate]
Fatal, n (%) [5, 10]: 0 n (%) | Survival, n (%) [5, 10]: 19 (100) n (%) | Fatal (outcome) ([5]; Table 1, number (%) of patients, Amlodipine n = 19): 0 | Admission to ICU ([5]; Amlodipine n = 19): none | Invasive ventilation ([5]; Amlodipine n = 19): none | Admission to ICU [5, 13]: 0 | Invasive ventilation [5, 13]: 0 | anti-SARS-CoV-2 activity by plaque assay (in words) (SARS-CoV-2 [7]): confirmed by plaque assay | Cmax ([4]; volunteers, 5 mg of amlodipine besylate): ~ 4 ng/mL

CCCCc1nc(Cl)c(CO)n1Cc1ccc(-c2ccccc2-c2nn[nH]n2)cc1 [losartan potassium]
inhibition of SARS-CoV-2 replication (in words) (SARS-CoV-2 [6]; [11]): did not show any significant inhibition effects

NCCOB(c1ccccc1)c1ccccc1 [2ABP, 2-aminoethyl diphenylborinate]
selectivity ratio (SARS-CoV-2 [2]): > 8.26 | inhibition of SARS-CoV-2 replication (in words) (SARS-CoV-2 [6]): significantly inhibited virus replication in a concentration-dependent manner | CC50 at 24 h [8]: > 200 µM | IC50 (SARS-CoV-2 [3]): 24.2 µM | stage of virus infection inhibited (SARS-CoV-2 [9]): mainly inhibit virus infection at a stage after virus entry

COC(=O)C1=C(C)NC(C)=C(C(=O)O[C@@H]2CCCN(Cc3ccccc3)C2)[C@@H]1c1cccc([N+](=O)[O-])c1.Cl [benidipine HCI]
selective index (SI = CC50/IC50) (SARS-CoV-2 [6]; Vero E6 cells): > 26.25 | IC50 (SARS-CoV-2 [6]; [12]): 3.81 µM | effect on virus replication, separate or combined application (SARS-CoV-2 [1]): distinct reduction in virus replication | CC50 (Vero E6 cells): > 100 µM | anti-SARS-CoV-2 activity by plaque assay (in words) (SARS-CoV-2 [7]): confirmed by plaque assay | stage of virus infection inhibited (SARS-CoV-2 [9]; Vero E6 cells, MOI 0.05, 24 h p.i., qRT-PCR, western blot, immunofluorescence): mainly inhibit virus infection at a stage after virus entry | Cmax ([4]; volunteers, 8 mg of benidipine HCI): ~ 4 ng/mL

COC(=O)C1=C(C)NC(C)=C(C(=O)OCCN(C)Cc2ccccc2)C1c1cccc([N+](=O)[O-])c1 (stereo not shown) [nicardipine HCI, nicardipine HCl]
selectivity ratio at 24 h (SARS-CoV-2 [2]): > 7.51 | CC50 at 24 h [8]: > 100 µM | IC50 (SARS-CoV-2 [3]): 13.3 µM | Cmax ([4]; volunteers, 60 mg nicardipine hydrochloride): 58.4 ng/mL
